Where two headings read alike, the source gives them in different places.
What was measured:
C. koseri = experiment: MIC of imipenem, ertapenem and meropenem; format: cell-based
enterobacterial isolates = experiment: MIC of imipenem, ertapenem and meropenem (groups of isolates, other species); format: cell-based, Enterobacteriaceae
S. typhimurium = experiment: MIC of imipenem, ertapenem and meropenem; format: cell-based
E. aerogenes = experiment: MIC of imipenem, ertapenem and meropenem; format: cell-based, Enterobacter aerogenes; settings: Klebsiella aerogenes, read-out: MIC
K. pneumoniae = experiment: MIC of imipenem, ertapenem and meropenem; format: cell-based, Klebsiella pneumoniae; settings: Klebsiella pneumoniae, read-out: MIC

Measured: MIC

C[C@@H](O)[C@H]1C(=O)N2C(C(=O)O)=C(S[C@@H]3CN[C@H](C(=O)Nc4cccc(C(=O)O)c4)C3)[C@H](C)[C@H]12 [ETP, ertapenem]
0.008 µg/mL: K. pneumoniae; K. pneumoniae 0227, SHV-1, non-carbapenemase producer
0.19 µg/mL: S. typhimurium; S. typhimurium 1081 (CTX-M-1) | S. typhimurium; Salmonella enterica, S. typhimurium 1081, CTX-M-1, non-carbapenemase producer, read-out: MIC | S. typhimurium; strain S. typhimurium 1081, CTX-M-1, non-carbapenemase producer | E. aerogenes; E. aerogenes 1085 (TEM-24) | E. aerogenes; E. aerogenes 1085, TEM-24, non-carbapenemase producer | E. aerogenes; strain E. aerogenes 1085, TEM-24, non-carbapenemase producer
12 µg/mL: K. pneumoniae; K. pneumoniae GES, KPC-2 + TEM-1 + SHV-11
0.12 µg/mL: E. aerogenes; E. aerogenes 1009, TEM-24, non-carbapenemase producer
3 µg/mL: K. pneumoniae; K. pneumoniae 0709121, IMP-1 | K. pneumoniae; K. pneumoniae 0709124, IMP-1 + TEM-15 | K. pneumoniae; K. pneumoniae EGY (OXA-48 + CTX-M-15) | K. pneumoniae; K. pneumoniae EGY, OXA-48 + CTX-M-15 | K. pneumoniae; K. pneumoniae ELK (OXA-48 + TEM-1 + CTX-M-15 + SHV-11) | K. pneumoniae; K. pneumoniae ELK, OXA-48 + TEM-1 + CTX-M-15 + SHV-11
0.016 µg/mL: K. pneumoniae; K. pneumoniae 1022, SHV-2a + SHV-28, non-carbapenemase producer | K. pneumoniae; K. pneumoniae 1025 (CTX-M-14 + TEM-1 + SHV-11) | K. pneumoniae; K. pneumoniae 1025, CTX-M-14 + TEM-1 + SHV-11, non-carbapenemase producer | K. pneumoniae; K. pneumoniae 10112, CTX-M-15 + TEM-1 + SHV-11, non-carbapenemase producer
6 µg/mL: K. pneumoniae; K. pneumoniae 2 OLA (NDM-1 + OXA-1) | K. pneumoniae; K. pneumoniae AEL, OXA-48 + CTX-M-15 + SHV-28 + OXA-1
32 µg/mL: K. pneumoniae; K. pneumoniae 588, KPC-2 + TEM-1 + SHV-11 + OXA-9 | K. pneumoniae; K. pneumoniae DUW, OXA-48 + TEM-1 + CTX-M-15 + SHV-28
1 µg/mL: K. pneumoniae; K. pneumoniae BEN (OXA-48 + TEM-1 + CTX-M-15 + SHV-28) | K. pneumoniae; K. pneumoniae BEN, OXA-48 + TEM-1 + CTX-M-15 + SHV-28 | K. pneumoniae; K. pneumoniae CHA (OXA-48 + TEM-1) | K. pneumoniae; K. pneumoniae CHA, OXA-48 + TEM-1
16 µg/mL: K. pneumoniae; K. pneumoniae 6642 GEN (NDM-1 + CTX-M-15 + OXA-1 + OXA-10) | K. pneumoniae; K. pneumoniae 6642 GEN, NDM-1 + CTX-M-15 + OXA-1 + OXA-10
2 µg/mL: C. koseri; C. koseri VER (OXA-48) | C. koseri; C. koseri VER, OXA-48 | C. koseri; Citrobacter koseri, C. koseri ROU, OXA-48, read-out: MIC | C. koseri; strain C. koseri VER, OXA-48 | K. pneumoniae; K. pneumoniae 648236 (SHV-2a) | K. pneumoniae; K. pneumoniae 648236, SHV-2a, non-carbapenemase producer, porin deficiency | K. pneumoniae; K. pneumoniae AMS (OXA-48 + TEM-1 + CTX-M-15 + OXA-1) | K. pneumoniae; K. pneumoniae AMS, OXA-48 + TEM-1 + CTX-M-15 + OXA-1 | K. pneumoniae; K. pneumoniae BIC (OXA-48) | K. pneumoniae; K. pneumoniae BIC, OXA-48 | K. pneumoniae; K. pneumoniae DAL (OXA-48 + CTX-M-15 + TEM-1) | K. pneumoniae; K. pneumoniae DAL, OXA-48 + TEM-1 + CTX-M-15
1.5 µg/mL: K. pneumoniae; K. pneumoniae BAJ (OXA-48 + TEM-1 + CTX-M-15 + SHV-28) | K. pneumoniae; K. pneumoniae BAJ, OXA-48 + TEM-1 + CTX-M-15 + SHV-28 | K. pneumoniae; K. pneumoniae ENN, VIM-1+ SHV-5
4 µg/mL: K. pneumoniae; K. pneumoniae 0709125, IMP-1 + TEM-1 + SHV-12 | K. pneumoniae; K. pneumoniae 0709127, IMP-1 + TEM-1 | K. pneumoniae; K. pneumoniae BEL (OXA-48) | K. pneumoniae; K. pneumoniae BEL, OXA-48 | K. pneumoniae; K. pneumoniae BER (TEM-1 + SHV-28) | K. pneumoniae; K. pneumoniae BER, SHV-28 + TEM-1, non-carbapenemase producer, porin deficiency | K. pneumoniae; K. pneumoniae COL (KPC-2 + TEM-1 + SHV-1 + CTX-M-15) | K. pneumoniae; K. pneumoniae HOL (OXA-181 + CTX-M-15) | K. pneumoniae; K. pneumoniae HOL, OXA-181 + CTX-M-15
24 µg/mL: K. pneumoniae; K. pneumoniae A28006, KPC-2 + TEM-1 + CTX-M-2 + SHV-11
0.38 µg/mL: K. pneumoniae; K. pneumoniae BEY (OXA-48 + CTX-M-15 + TEM-1) | K. pneumoniae; K. pneumoniae BEY, OXA-48 + TEM-1 + CTX-M-15
0.5 µg/mL: K. pneumoniae; K. pneumoniae BOU, OXA-48
> 32 µg/mL: enterobacterial isolates; Serratia marcescens, S. marcescens D6403, KPC-2 + TEM-1, read-out: MIC | K. pneumoniae; K. pneumoniae 1 OMA (NDM-1 + CTX-M-15 + OXA-1 + OXA-9) | K. pneumoniae; K. pneumoniae 7 AFR (NDM-1 + OXA-1 + CTX-M-15 + CMY-6 + TEM-1) | K. pneumoniae; K. pneumoniae 7AFR, NDM-1 + TEM-1 + CTX-M-15 + CMY-6 + OXA-1 | K. pneumoniae; K. pneumoniae 2303, KPC-2 + SHV-11 | K. pneumoniae; K. pneumoniae 6759 GEN (NDM-1 + CTX-M-15 + OXA-1 + OXA-9 + OXA-10 + CMY16) | K. pneumoniae; K. pneumoniae 6759 GEN, NDM-1 + CTX-M-15 + CMY-16 + OXA-1 + OXA-9 + OXA-10 | K. pneumoniae; K. pneumoniae 0404020, VIM-1+ SHV-5 | K. pneumoniae; K. pneumoniae 0404024, VIM-1 | K. pneumoniae; K. pneumoniae 0511135, VIM-1+ SHV-12 | K. pneumoniae; K. pneumoniae A33504, KPC-2 + TEM-1 + SHV-11 + CTX-M-2 + OXA-9 | K. pneumoniae; K. pneumoniae ALE (CTX-M-15 + SHV-1) | K. pneumoniae; K. pneumoniae ALE, CTX-M-15 + SHV-1, non-carbapenemase producer, porin deficiency | K. pneumoniae; K. pneumoniae BED (CTX-M-15 + TEM-1 + SHV-1; Table 8: SHV-11) | K. pneumoniae; K. pneumoniae BED, CTX-M-15 + TEM-1 + SHV-11, non-carbapenemase producer, porin deficiency | K. pneumoniae; K. pneumoniae COO (CTX-M-15 + SHV28) | K. pneumoniae; K. pneumoniae COO, CTX-M-15 + SHV-28, non-carbapenemase producer, porin deficiency | K. pneumoniae; K. pneumoniae DIA, OXA-48 + TEM-1b + CTX-M-15 + SHV-11 + OXA-1 | K. pneumoniae; K. pneumoniae FOS (CTX-M-15 + TEM-1 + SHV-11) | K. pneumoniae; K. pneumoniae FOS, CTX-M-15 + TEM-1 + SHV-11, non-carbapenemase producer, porin deficiency
>32 µg/mL: enterobacterial isolates; S. marcescens 0911033, IMP-1 | enterobacterial isolates; S. marcescens 1008091, VIM-1+ CTX-M-15 | enterobacterial isolates; S. marcescens C7052, KPC-2 + TEM-1 + SHV-12
0.006 µg/mL: K. pneumoniae; K. pneumoniae 7725 (SHV-1) | K. pneumoniae; K. pneumoniae 7725, SHV-1, non-carbapenemase producer
> 0.25 µg/mL: enterobacterial isolates; Example 3, 19 isolates (1 Citrobacter freundii, 2 E. coli, 4 E. cloacae, 12 K. pneumoniae) with porin defect, read-out: MIC values of ertapenem of ertapenem non-susceptible isolates

Source: US9328374B2, “Selective culture medium and method for detecting carbapenem-resistant bacteria in a test sample” (Institut National de la Sante et de la Recherche Medicale …, priority 2011, dated 2016)
